Here are results for two molecules from US20140271534A1, “COMPOUNDS, COMPOSITIONS, AND METHODS FOR REPELLING AN INSECT FROM AN AREA, ARTICLE, AND/OR STRUCTURE” (BAYER CROPSCIENCE LP, priority 2013, published 2014).

One data set concerns honeybees. Description: honeybee repulsion experiment, feeding stations with 50% sucrose. It is filed as in vivo. To be noted: for repellency to honeybees at 24 hours: 2% by weight in 50% sucrose feeder. Here is the method: FIG. 1 describes the feeding station arrangement (A and B) for the honeybee repulsion experiments described herein. As set forth in FIG. 1, panel (A) sets forth the bee cage positions on the left portion of panel (A) with the randomized feeding station positions on the right portion of panel (A). Panel (B) sets forth an alignment of the randomized feeding station positions with a distance of two meters between feeding stations. A total of eight feeding stations were evaluated at a ten meter distance in front of the respective bee hives. The feeding stations were placed two meters apart from one another.
Honeybees were trained to deep feeders (eight positions), each containing a 50% sucrose solution for one day. After the honeybees were trained to each feeder, the 50% sucrose feeder at randomized positions 1-8 was replaced with a shallow feeder containing a combination of repelling compounds and a 50% sucrose solution according to Table 3. In accordance with FIGS. 5 and 6, 2% by weight of Camphor oil (T4), Ajowan oil (T5), Camphor powder (T6), Rosemary oil (T7), and 2-Decanone (T8) in combination with a 50% sucrose treatment were added to feeders on day two.
Table 3 describes active agents evaluated for bee repulsion and their randomized feeding station positions. As described in Table 3, T1 (control), T2 (control), T3 (control), T4 (Camphor oil), T5 (Ajowan oil), T6 (Camphor powder), T7 (Rosemary oil), and T8 (2-Decanone).
FIG. 5 evaluates the number of bees visiting a respective feed station over a time interval. FIG. 6 sets forth the mean number of honeybees visiting feeding station over a period of four hours.

Data set [1] is described as follows: stability test of Poncho 600 combined with α-terpineol, clothianidin content by HPLC. As to conditions: in Poncho combined with alpha-terpineol; up to 54° C. for eight days. In kind it is physicochemical. Here is the method: Table 5 describes a stability test with a combination of α-terpineol and Poncho 600 evaluated at room temperature, 40° C., and 54° C. at zero time, 2 days, and 8 days as confirmed by HPLC.

A short description of data set [2]: stability test of Poncho combined with Eugenol, clothianidin content by HPLC. In kind it is physicochemical. To be noted: in Poncho combined with Eugenol; up to 54° C. for seven days. The protocol:
Table 4 describes a stability test with a combination of Eugenol and Poncho evaluated at room temperature, 40° C., and 54° C. at zero time, 3 days, and 7 days as confirmed by high performance liquid chromatography (HPLC).

As to `CCCCCCCCC(C)=O` [Compound 2-Decanone, 2-decanone], the figures for the “repellency to honeybees at 24 hours” value in the data set on honeybees and in the data set with honeybees (listed as 2-decanone) were “exhibited repellency” and “still repellent”, respectively. Moreover, the “repellency to honeybees over the full 4 hour assessment period” value in the data set on honeybees (in 50% sucrose feeder, 4 hour assessment period) was “highly repellent”.
For the molecule `CN/C(=N\[N+](=O)[O-])NCc1cnc(Cl)s1` [clothianidin], the “chemical stability of clothianidin content” value in data set [1] and in data set [2] was “exhibited chemical stability” throughout.
